Test results published in PubChem BioAssay (NCI).
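Values below derive from 48-hour exposures of cells grown in 96-well plates, with endpoints linearly interpolated between the two concentrations bracketing the appropriate inhibition level. At the GI50, growth is halved. Definition used: TGI = concentration required for complete inhibition of growth.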

What was measured:
Assay in all cases: NCI-60 cell line screen, 48 h
CAKI-1 renal = test system: CAKI-1 renal
SK-OV-3 ovarian = test system: SK-OV-3 ovarian
ACHN renal = test system: ACHN renal
SNB-19 CNS = test system: SNB-19 CNS
HCT-15 colon = test system: HCT-15 colon
SF-268 CNS = test system: SF-268 CNS
RPMI-8226 leukemia = test system: RPMI-8226 leukemia
NCI-H460 lung = test system: NCI-H460 lung
SNB-75 CNS = test system: SNB-75 CNS
EKVX NSCLC = test system: EKVX NSCLC

Structure (SMILES) | TGI (CAKI-1 renal) [µM] | TGI (SK-OV-3 ovarian) [µM] | TGI (ACHN renal) [µM] | TGI (SNB-19 CNS) [µM] | TGI (HCT-15 colon) [µM] | TGI (SF-268 CNS) [µM] | TGI (RPMI-8226 leukemia) [µM] | TGI (NCI-H460 lung) [µM] | TGI (SNB-75 CNS) [µM] | TGI (EKVX NSCLC) [µM] | GI50 (CAKI-1 renal) [µM] | GI50 (SK-OV-3 ovarian) [µM] | GI50 (ACHN renal) [µM] | GI50 (SNB-19 CNS) [µM] | GI50 (HCT-15 colon) [µM] | GI50 (SF-268 CNS) [µM] | GI50 (RPMI-8226 leukemia) [µM] | GI50 (NCI-H460 lung) [µM] | GI50 (SNB-75 CNS) [µM] | GI50 (EKVX NSCLC) [µM]
O=C1c2c(c3c4ccccc4[nH]c3c3[nH]c4ccccc4c23)C(=O)N1Cc1ccccc1 | 10.2 | 9.49 | 11 | 9.02 | 5.91 | 14 | 6.74 | 13.5 | 8.01 | 23.7 | – | – | – | – | – | – | – | – | – | –
Nc1cc2nc3ccccc3oc-2cc1=O | > 53.7 | > 61.4 | > 79 | 16 | – | > 57.2 | > 20.4 | 4.36 | 4.63 | > 64.2 | 15.3 | 19.7 | 12.4 | 5.44 | 0.641 | 4.85 | 0.951 | 1.77 | 1.82 | 7.38
CN(C)c1ccc(/C=N/NC(=O)c2cccc3ccccc23)c(Cl)c1 | 8.04 | 25.2 | > 100 | > 100 | > 100 | > 100 | > 100 | > 100 | 16.3 | > 100 | 0.527 | 1.67 | 5.65 | 15.5 | 0.727 | 9.1 | 2.19 | 1.01 | 1.57 | 3.51
COc1ccc2nccc(/C=C/c3ccnc4ccc(OC)cc34)c2c1 | > 100 | > 100 | > 100 | > 100 | > 100 | > 100 | 39.9 | > 100 | > 80.2 | > 100 | > 82.4 | > 77 | > 71 | > 100 | > 62.8 | > 91.6 | 17.8 | > 100 | 27.3 | > 61.2
CC12CC(Sc3ccccc3N1)c1ccccc1O2 (centres undefined) | 42.4 | 58.4 | 31 | 30 | 29.2 | 30.4 | 48 | 33.2 | 53.3 | 33.4 | – | – | – | – | – | – | – | – | – | –
O=C(NC(=O)c1cc2cc(Br)cc(Br)c2oc1=O)Oc1ccccc1 | > 100 | > 100 | 72 | > 100 | > 100 | > 100 | > 100 | > 100 | 33.6 | > 100 | – | – | – | – | – | – | – | – | – | –
CC(=O)c1cccc(NC(=O)c2ccc(NC3=C(Cl)C(=O)N(Cc4ccccc4)C3=O)cc2)c1 | 3.05 | > 100 | 49.1 | > 100 | 44.5 | 98.9 | 15.1 | > 100 | > 100 | 97.3 | 1.61 | > 100 | 22.7 | 32.8 | 16.8 | 22.2 | 3.31 | 22.1 | 30.1 | 30.3
FC(F)(F)c1[nH]ncc1-c1nc2ccc3[nH]ncc3c2c2c1CCCC2 | 10.4 | 5.83 | 9.62 | 9.09 | 10.1 | 4.72 | 6.66 | 9.34 | 2.52 | 7.29 | 1.06 | 1.79 | 1.39 | 2.64 | 2.28 | 1.73 | 1.42 | 1.72 | 1.1 | 1.99
CC(OC(=O)N(N(CCCl)S(C)(=O)=O)S(C)(=O)=O)c1ccc([N+](=O)[O-])cc1 (centres undefined) | > 100 | > 100 | > 100 | > 100 | > 100 | > 100 | > 61.4 | > 100 | > 100 | > 76.9 | 64.3 | > 100 | > 100 | > 88.9 | > 100 | > 100 | > 40.4 | > 78.7 | > 89.1 | 23.4
Oc1ccccc1C=Nc1ccccc1N=Cc1ccccc1O.[Cu+2] | 12.4 | 18.3 | 22.2 | 26.3 | 24.8 | 17.5 | 40.8 | 30 | 19.3 | 23.6 | 2.74 | 5.23 | 5.64 | 13 | 5.81 | 4.35 | 2.09 | 12.3 | 5.15 | 8.62
CCN(CC)CCC(=O)/C=C/c1ccc(C)cc1 | 3.28 | 35.1 | 27.5 | 37.5 | 36.3 | 30.4 | > 100 | 38.3 | 30.9 | 32.4 | – | – | – | – | – | – | – | – | – | –
NC(CO)C(=O)NCC(=O)O (centres undefined) | > 100 | > 100 | > 100 | > 100 | > 100 | > 100 | > 100 | > 100 | > 100 | > 100 | – | – | – | – | – | – | – | – | – | –
Cc1ccc(S(=O)(=O)SCc2ccccc2)cc1 | > 75.2 | > 95.9 | > 100 | > 91.7 | 28.6 | > 85.7 | 33.5 | > 69.5 | > 84.2 | 97.2 | – | – | – | – | – | – | – | – | – | –
Oc1c2c(c(O)c3ccccc13)C1(N=N2)c2ccccc2Oc2ccccc21 | 26.5 | 31.4 | 16 | 32.4 | 9.15 | 25.5 | 14.7 | 46.3 | 33.5 | 28.3 | – | – | – | – | – | – | – | – | – | –
CC(=O)/C(=C\c1c(-c2ccccc2)[nH]c2ccccc12)S(=O)(=O)c1ccccc1 | 10.6 | 19.4 | 5.09 | 12.1 | 3.21 | 31.1 | 7.14 | 2.68 | 14.6 | > 100 | 2.43 | 2.81 | 2.06 | 4.14 | 0.834 | 3.35 | 2.23 | 1.04 | 1.59 | 3.22
CN(C)c1ccc(C(=C2C=CC(=[N+](C)C)C=C2)c2ccccc2Cl)cc1 | 2.76 | 0.992 | 1.61 | 1.29 | 4.96 | 1.41 | 0.893 | 0.804 | 0.851 | 1.45 | 0.455 | 0.314 | 0.4 | 0.348 | 0.717 | 0.379 | 0.184 | 0.245 | 0.238 | 0.162
